Data taken from patent publication US8765779B2, “Tricyclic derivatives and their pharmaceutical use and compositions” (Cephalon, Inc., priority 2009, dated 2014).

These compounds were tested against T1, human 5-HT6 receptor (Homo sapiens, UniProt P50406) (assay: Human 5-HT6 Receptor Binding Assay ([3H]LSD displacement, scintillation beads)). Conditions: membranes of CHO-K1 cells with recombinant human 5-HT6, 4 nM [3H]LSD; Table 1, class symbols; read-out: h5-HT6 (Ki).
T1 construct: host or cells: CHO-K1 cells, stably transfected; membranes prepared in house
T1 sequence (P50406 whole entry): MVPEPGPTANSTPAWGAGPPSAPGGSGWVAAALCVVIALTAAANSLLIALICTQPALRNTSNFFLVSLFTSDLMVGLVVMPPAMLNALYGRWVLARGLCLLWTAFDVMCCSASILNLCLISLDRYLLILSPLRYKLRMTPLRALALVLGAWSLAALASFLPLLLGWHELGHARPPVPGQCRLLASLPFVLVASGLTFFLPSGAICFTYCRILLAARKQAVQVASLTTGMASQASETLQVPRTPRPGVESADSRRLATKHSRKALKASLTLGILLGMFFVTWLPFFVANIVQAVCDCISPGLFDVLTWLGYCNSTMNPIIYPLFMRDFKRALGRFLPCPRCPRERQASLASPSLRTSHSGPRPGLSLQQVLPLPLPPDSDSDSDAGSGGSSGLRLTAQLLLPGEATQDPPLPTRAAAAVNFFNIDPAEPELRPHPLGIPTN

SMILES	Ki [nM]
CC(=O)N(C)CCC1NCCc2c1oc1cc(S(=O)(=O)c3cccc(Cl)c3)ccc21 (racemic) [Example 542, N-(2-{7-[(3-chlorophenyl)sulfonyl]-1,2,3,4-tetrahydro[1]benzofuro[2,3-c]pyridin-1-yl}ethyl)-N-methylacetamide]	< 500
Cc1ccnc(S(=O)(=O)c2ccc3c(c2)OC2CNCCC32C)n1 (racemic) [Example 7, 4a-methyl-7-[(4-methylpyrimidin-2-yl)sulfonyl]-1,2,3,4,4a,9a-hexahydro[1]benzofuro[2,3-c]pyridine]	> 1000
CC1NCCc2c1oc1ccc(S(=O)(=O)c3cccc(F)c3)cc21 (stereo not drawn) [Example 283]	< 500
CC12CCNCC1Oc1cc(S(=O)(=O)c3cccc(C(F)(F)F)c3)ccc12 (stereo not drawn) [Example 357]	< 500
CN(C)C(=O)CC1(C)NCCc2c1oc1cc(S(=O)(=O)c3cccc(F)c3)ccc21 (single isomer, unassigned) [Example 50, 2-{7-[(3-fluorophenyl)sulfonyl]-1-methyl-1,2,3,4-tetrahydro[1]benzofuro[2,3-c]pyridin-1-yl}-N,N-dimethylacetamide]	< 500
CC1(C)NCCc2c1oc1cc(S(=O)(=O)c3c[nH]c(=O)c(C(F)(F)F)c3)ccc21 [Example 377]	> 1000
O=S(=O)(c1ccncc1)c1ccc2c(c1)OC1CNCCC21 (stereo not drawn) [Example 330]	> 1000
O=S(=O)(Oc1ccc2c(c1)OC1CNCCC21)c1ccc(N2CCOCC2)nc1 (stereo not drawn) [Example 683]	500 to 1000
O=S(=O)(c1ccc(F)c(F)c1)c1ccc2oc3c(c2c1)CCNC3 [Example 240]	< 500
CC(C)C1NCCc2c1oc1ccc(S(=O)(=O)c3cccc(F)c3)cc21 (stereo not drawn) [Example 512]	< 500
CN1CCC2c3ccc(S(=O)(=O)c4ccccc4)cc3OC2C1 (stereo not drawn) [Example 607]	< 500
CC(=O)NCC1NCCc2c1oc1cc(S(=O)(=O)c3cccc(F)c3)ccc21 (racemic) [Example 535, N-({7-[(3-fluorophenyl)sulfonyl]-1,2,3,4-tetrahydro[1]benzofuro[2,3-c]pyridin-1-yl}methyl)acetamide]	< 500
CC(=O)N(C)CC1NCCc2c1oc1ccc(S(=O)(=O)c3cccc(F)c3)cc21 (stereo not drawn) [Example 533, N-({6-[(3-Fluorophenyl)sulfonyl]-1,2,3,4-tetrahydro[1]benzofuro[2,3-c]pyridin-1-yl}methyl)-N-methylacetamide]	< 500
O=S(=O)(c1cncc(Cl)c1)c1ccc2c(c1)OC1CNCCC21 (stereo not drawn) [Example 392]	< 500
O=S(=O)(c1ccc2c(c1)OC1CNCCC21)C1CCCCC1 (stereo not drawn) [Example 154]	> 1000
O=S(=O)(c1cccc(F)c1)c1ccc2c3c(oc2c1)C1(CCOC1)NCC3 (racemic) [Example 30, 7-[(3-fluorophenyl)sulfonyl]-3,4,4′,5′-tetrahydro-2H-spiro[1-benzofuro[2,3-c]pyridine-1,3′-furan]]	< 500
[O-][S+](c1ccc2c(c1)OC1CNCCC21)c1cccc(F)c1F (stereo not drawn) [Example 384]	< 500
O=S(=O)(c1ccccc1)c1ccc2c3c(oc2c1)CN(CCc1ccccc1)CC3 [Example 596]	< 500
CC(=O)NCC1NCCc2c1oc1cc(S(=O)(=O)c3cccc(Cl)c3)ccc21 (racemic) [Example 539, N-({7-[(3-chlorophenyl)sulfonyl]-1,2,3,4-tetrahydro[1]benzofuro[2,3-c]pyridin-1-yl}methyl)acetamide]	< 500

SMILES	Ki [nM]
CC12CCNCC1Oc1cc(S(=O)(=O)c3ncccn3)ccc12 (racemic) [Example 9, 4a-methyl-7-(pyrimidin-2-ylsulfonyl)-1,2,3,4,4a,9a-hexahydro[1]benzofuro[2,3-c]pyridine]	> 1000
[O-][S+](c1ccc2c3c(oc2c1)CNCC3)c1c(F)c(F)cc(F)c1F (stereo not drawn) [Example 224]	< 500
O=S(=O)(c1cccc(F)c1)c1ccc2c3c(oc2c1)C(CC(F)(F)F)NCC3 (stereo not drawn) [Example 507]	< 500
Cc1cccc(S(=O)(=O)c2ccc3c4c(oc3c2)C(C)(C)NCC4)n1 [Example 19, 1,1-dimethyl-7-[(6-methylpyridin-2-yl)sulfonyl]-1,2,3,4-tetrahydro[1]benzofuro[2,3-c]pyridine]	< 500
O=S(=O)(c1cccc(F)c1)c1ccc2oc3c(c2c1)CCNC3CC(F)(F)F (stereo not drawn) [Example 518]	> 1000
O=S(=O)(c1cccc(Cl)c1)c1ccc2c3c(oc2c1)CN(CCc1ccccc1)CC3 [Example 602]	< 500
O=S(=O)(c1ccccc1)c1ccc2c(c1)OC1CN(C3CCCCC3)CCC21 (stereo not drawn) [Example 610]	500 to 1000
CC(=O)N1CCc2c(oc3cc(S(=O)(=O)c4cccc(Cl)c4)ccc23)C1 [Example 615, 1-{7-[(3-Chlorophenyl)sulfonyl]-3,4-dihydro[1]benzofuro[2,3-c]pyridin-2(1H)-yl}ethanone]	< 500
CC1(C)CNCc2oc3cc(S(=O)(=O)c4cncc(Cl)c4)ccc3c21 [Example 452]	< 500
O=S(=O)(c1cccc(Cl)c1)c1ccc2c3c(oc2c1)C(C1CC1)NCC3 (stereo not drawn) [Example 503]	< 500
CC(=O)NCCC1NCCc2c1oc1ccc(S(=O)(=O)c3cccc(F)c3)cc21 (stereo not drawn) [Example 532, N-(2-{6-[(3-fluorophenyl)sulfonyl]-1,2,3,4-tetrahydro[1]benzofuro[2,3-c]pyridin-1-yl}ethyl)acetamide]	500 to 1000
CC1OCCC12NCCc1c2oc2cc(S(=O)(=O)c3cccc(F)c3)ccc12 (single isomer, unassigned) [Example 58, 7-[(3-Fluorophenyl)sulfonyl]-2′-methyl-3,4,4′,5′-tetrahydro-2H-spiro[1-benzofuro[2,3-c]pyridine-1,3′-furan]]	< 500
O=S(=O)(c1cccc(Cl)c1)c1ccc2c3c(oc2c1)C(C1CCOC1)NCC3 (stereo not drawn) [Example 521]	< 500
CC1(C)NCCc2c1oc1cc(S(=O)(=O)c3cc(Cl)cnc3N)ccc21 [Example 372]	< 500
O=S(=O)(c1cccc(Cl)c1)c1ccc2c3c(oc2c1)C(C1CCOCC1)NCC3 (stereo not drawn) [Example 500]	< 500
O=S(=O)(c1ccc2oc3c(c2c1)CCNC3)c1cc(Cl)ccc1Cl [Example 266, 6-[(2,5-dichlorophenyl)sulfonyl]-1,2,3,4-tetrahydro[1]benzofuro[2,3-c]pyridine]	< 500
CC(=O)N(C)CCC1NCCc2c1oc1ccc(S(=O)(=O)c3cccc(F)c3)cc21 (stereo not drawn) [Example 534, N-(2-{6-[(3-Fluorophenyl)sulfonyl]-1,2,3,4-tetrahydro[1]benzofuro[2,3-c]pyridin-1-yl}ethyl)-N-methylacetamide]	< 500
CC1(C)NCCc2c1oc1cc(S(=O)(=O)c3cccc(OC(F)(F)F)c3)ccc21 [Example 291, 1,1-dimethyl-7-{[3-(trifluoromethoxy)phenyl]sulfo-nyl}-1,2,3,4-tetrahydro[1]benzofuro[2,3-c]pyridine]	< 500
O=S(=O)(c1ccc2oc3c(c2c1)CCNC3)c1ccccc1F [Example 277]	< 500

Now from value to compound:

Ki [nM]	SMILES
< 500	O=S(=O)(c1ccc2c(c1)OC1CNCCC21)c1cc(F)ccc1F (stereo not drawn) [Example 143]
< 500	O=S(=O)(c1cccc(OCC2CCCO2)c1)c1ccc2c(c1)OC1CNCCC21 (stereo not drawn) [Example 577]
> 1000	CC(=O)N1CCC2c3cc(NS(=O)(=O)c4cc(C)ccc4C)ccc3OC2C1 (stereo not drawn) [Example 815]
< 500	O=S(=O)(c1cccc(OCc2cnccn2)c1)c1ccc2c(c1)OC1CNCCC21 (stereo not drawn) [Example 567]
> 1000	COc1ccc(S(=O)(=O)c2ccc3c(c2)C2CCNCC2O3)cc1 (stereo not drawn) [Example 336]
< 500	O=S(=O)(c1ccccc1)c1ccc2c(c1)OC1CNCCC21 (stereo not drawn) [Example 324, 7-(phenylsulfonyl)-1,2,3,4,4a,9a-hexahydro[1]benzofuro[2,3-c]pyridine]
< 500	O=S(=O)(Oc1ccc2c(c1)C1CCNCC1O2)c1ccc(Cl)c(Cl)c1 (stereo not drawn) [Example 738]
> 1000	CC(C)c1ccc(S(=O)(=O)Nc2ccc3c(c2)C2CCNCC2O3)cc1 (stereo not drawn) [Example 824]
< 500	O=S(=O)(Oc1ccc2c(c1)C1CCNCC1O2)c1ccc2ccccc2c1 (stereo not drawn) [Example 721]
< 500	CC(C)c1ccc(S(=O)(=O)c2ccc3c(c2)C2CCNCC2O3)cc1 (stereo not drawn) [Example 179]
< 500	O=S(=O)(c1ccc2c(c1)OC1CNCCC21)c1ccccc1F (stereo not drawn) [Example 146]
> 1000	COc1ccc(F)cc1S(=O)(=O)c1ccc2c(c1)OC1CNCCC21 (stereo not drawn) [Example 132]
< 500	O=S(=O)(Oc1ccc2c(c1)OC1CNCCC21)c1cccc2cccnc12 (stereo not drawn) [Example 662]
> 1000	O=S(=O)(Oc1ccc2c(c1)C1CCNCC1O2)c1ccc(Cl)cc1 (stereo not drawn) [Example 695]
< 500	O=S(=O)(c1ccc2c(c1)OC1CNCCC21)c1cc(F)cc(F)c1F (stereo not drawn) [Example 386]
< 500	Cc1ccc(C)c(S(=O)(=O)Nc2ccc3c(c2)C2CCNCC2O3)c1 (stereo not drawn) [Example 820, N-(1,2,3,4,4a,9a-hexahydro[1]benzofuro[2,3-c]pyridin-6-yl)-2,5-dimethylbenzenesulfonamide]
> 1000	O=[N+]([O-])c1ccc(S(=O)(=O)Oc2ccc3c(c2)C2CCNCC2O3)cc1 (stereo not drawn) [Example 749]
< 500	O=S(=O)(c1cccc(C(F)(F)F)c1)c1ccc2c(c1)OC1CNCCC21 (stereo not drawn) [Example 167]
< 500	O=S(=O)(c1ccc2c(c1)OC1CNCCC21)c1cccc(Cl)c1Cl (stereo not drawn) [Example 156]
500 to 1000	CN1CCC2c3ccc(OS(=O)(=O)c4ccc(Cl)cc4)cc3OC2C1 (stereo not drawn) [Example 799]
< 500	O=S(=O)(Oc1ccc2c(c1)C1CCNCC1O2)c1ccc2c(c1)OCCO2 (stereo not drawn) [Example 729]
< 500	COc1cc(F)cc(S(=O)(=O)c2ccc3c(c2)OC2CNCCC32)c1 (stereo not drawn) [Example 420]
> 1000	O=S(=O)(Oc1ccc2c(c1)OC1CNCCC21)c1ccc(Oc2ccccc2)nc1 (stereo not drawn) [Example 685]
< 500	CC(=O)Nc1ccc(S(=O)(=O)c2ccc3c(c2)OC2CNCCC32)cc1 (stereo not drawn) [Example 140]

Same assay, conditions: membranes of CHO-K1 cells with recombinant human 5-HT6, 4 nM [3H]LSD; specific data; read-out: h5-HT6 (Ki)

Ki [nM]	SMILES
472	Cc1ccc(C)c(S(=O)(=O)Nc2ccc3c(c2)C2CCNCC2O3)c1 (stereo not drawn) [Example 820, N-(1,2,3,4,4a,9a-hexahydro[1]benzofuro[2,3-c]pyridin-6-yl)-2,5-dimethylbenzenesulfonamide]
